Experimental data from ChEMBL document CHEMBL3885861, “Open TG-GATES”.

Organism: Rattus norvegicus
Test: Open TG-GATES - Regimen: Daily Repeat
Format: toxicity, organism-based, Sprague-Dawley
Design: regimen Daily Repeat, gender Male, age 6 weeks
Conditions: in vivo, po, route gavage; for APTT / Bas / Eos / Fbg / Hb / Ht / Lym / MCH / MCHC / MCV / Mono / Neu / PT / Plat / RBC / Ret / WBC: tissue Blood; for KIDNEY_L / KIDNEY_R / KIDNEY_TOTAL: tissue Kidney; for LIVER: tissue Liver; for A/G / ALP / ALT / AST / BUN / CRE / Ca / Cl / DBIL / GLC / IP / K / LDH / Na / PL / RALB / TBIL / TC / TG / TP / gamma-GTP: tissue Plasma
[1] = 0 mg/kg, 72 h, dose level Control, time 3 day
[2] = 0 mg/kg, […], dose level Control, time 7 day
[3] = 0 mg/kg, […], dose level Control, time 14 day
[4] = 0 mg/kg, […], dose level Control, time 28 day
[5] = 10 mg/kg, 72 h, dose level Low, time 3 day
[6] = 10 mg/kg, […], dose level Low, time 7 day
[7] = 10 mg/kg, […], dose level Low, time 14 day
[8] = 10 mg/kg, […], dose level Low, time 28 day

## O=C1CN(/N=C/c2ccc([N+](=O)[O-])o2)C(=O)N1 [NITROFURANTOIN]
[1]
  TERMINAL_BW: 244.1 g
  APTT: 19.2 s
  Bas: 0%
  Eos: 1%
  Fbg: 219 mg/dL
  Hb: 13.7 g/dL
  Ht: 39.1%
  Lym: 80.6%
  MCH: 22 pg
  MCHC: 35.1%
  MCV: 62.8 fL
  Mono: 3%
  Neu: 13.8%
  PT: 12.3 s
  Plat: 134.3 x10_4/uL
  RBC: 622.8 x10_4/ul
  Ret: 6.3%
  WBC: 116.2 x10_2/uL
  KIDNEY_L: 1 g
  KIDNEY_R: 1.1 g
  KIDNEY_TOTAL: 2.1 g
  LIVER: 12.1 g
  A/G: 1.5
  ALP: 885 IU/L
  ALT: 35.6 IU/L
  AST: 68.6 IU/L
  BUN: 16.2 mg/dL
  CRE: 0.4 mg/dL
  Ca: 10.8 mg/dL
  Cl: 101 meq/L
  DBIL: 0.1 mg/dL
  GLC: 233.2 mg/dL
  IP: 7.2 mg/dL
  K: 3.7 meq/L
  LDH: 200.8 IU/L
  Na: 140 meq/L
  PL: 166.6 mg/dL
  RALB: 3.4 g/dL
  TBIL: 0.2 mg/dL
  TC: 77.6 mg/dL
  TG: 139.8 mg/dL
  TP: 5.6 g/dL
  gamma-GTP: 1 IU/L
[2]
  TERMINAL_BW: 274 g
  APTT: 19.9 s
  Bas: 0%
  Eos: 0.8%
  Fbg: 227.8 mg/dL
  Hb: 14.1 g/dL
  Ht: 40.2%
  Lym: 80.6%
  MCH: 21.5 pg
  MCHC: 35.2%
  MCV: 61.2 fL
  Mono: 2.6%
  Neu: 14.6%
  PT: 12.5 s
  Plat: 135 x10_4/uL
  RBC: 657.2 x10_4/ul
  Ret: 5.4%
  WBC: 123.7 x10_2/uL
  KIDNEY_L: 1.2 g
  KIDNEY_R: 1.2 g
  KIDNEY_TOTAL: 2.4 g
  LIVER: 13 g
  A/G: 1.5
  ALP: 943.4 IU/L
  ALT: 32.8 IU/L
  AST: 63.2 IU/L
  BUN: 16.4 mg/dL
  CRE: 0.4 mg/dL
  Ca: 10.8 mg/dL
  Cl: 101 meq/L
  DBIL: 0.1 mg/dL
  GLC: 192.8 mg/dL
  IP: 6.9 mg/dL
  K: 4.4 meq/L
  LDH: 238.6 IU/L
  Na: 139.8 meq/L
  PL: 166.8 mg/dL
  RALB: 3.5 g/dL
  TBIL: 0.2 mg/dL
  TC: 79.4 mg/dL
  TG: 141 mg/dL
  TP: 5.8 g/dL
  gamma-GTP: 0.6 IU/L
[3]
  TERMINAL_BW: 331.5 g
  APTT: 20.1 s
  Bas: 0%
  Eos: 0.6%
  Fbg: 227.4 mg/dL
  Hb: 14.6 g/dL
  Ht: 41.5%
  Lym: 77.4%
  MCH: 20.3 pg
  MCHC: 35.1%
  MCV: 57.7 fL
  Mono: 1.8%
  Neu: 18.8%
  PT: 12.3 s
  Plat: 117.4 x10_4/uL
  RBC: 718.6 x10_4/ul
  Ret: 4.4%
  WBC: 127.2 x10_2/uL
  KIDNEY_L: 1.3 g
  KIDNEY_R: 1.3 g
  KIDNEY_TOTAL: 2.6 g
  LIVER: 14.5 g
  A/G: 1.4
  ALP: 818 IU/L
  ALT: 34.4 IU/L
  AST: 60.6 IU/L
  BUN: 16.6 mg/dL
  CRE: 0.4 mg/dL
  Ca: 10.4 mg/dL
  Cl: 101.6 meq/L
  DBIL: 0.1 mg/dL
  GLC: 218.2 mg/dL
  IP: 6.7 mg/dL
  K: 3.7 meq/L
  LDH: 189.6 IU/L
  Na: 140 meq/L
  PL: 153.2 mg/dL
  RALB: 3.4 g/dL
  TBIL: 0.2 mg/dL
  TC: 66.4 mg/dL
  TG: 148.8 mg/dL
  TP: 5.9 g/dL
  gamma-GTP: 1 IU/L
[4]
  TERMINAL_BW: 422.1 g
  APTT: 21.4 s
  Bas: 0%
  Eos: 1%
  Fbg: 227 mg/dL
  Hb: 15 g/dL
  Ht: 42.7%
  Lym: 84%
  MCH: 19.8 pg
  MCHC: 35%
  MCV: 56.4 fL
  Mono: 1.6%
  Neu: 12.4%
  PT: 12.4 s
  Plat: 107.4 x10_4/uL
  RBC: 757.4 x10_4/ul
  Ret: 2.4%
  WBC: 107.5 x10_2/uL
  KIDNEY_L: 1.5 g
  KIDNEY_R: 1.5 g
  KIDNEY_TOTAL: 2.9 g
  LIVER: 17.7 g
  A/G: 1.3
  ALP: 551.8 IU/L
  ALT: 32.8 IU/L
  AST: 54.8 IU/L
  BUN: 16.6 mg/dL
  CRE: 0.5 mg/dL
  Ca: 10.4 mg/dL
  Cl: 102.4 meq/L
  DBIL: 0.1 mg/dL
  GLC: 218 mg/dL
  IP: 6.5 mg/dL
  K: 3.6 meq/L
  LDH: 125 IU/L
  Na: 140 meq/L
  PL: 162.4 mg/dL
  RALB: 3.4 g/dL
  TBIL: 0.2 mg/dL
  TC: 78.4 mg/dL
  TG: 139.2 mg/dL
  TP: 6.1 g/dL
  gamma-GTP: 1.2 IU/L
[5]
  TERMINAL_BW: 245.3 g
  APTT: 18 s
  Bas: 0%
  Eos: 1%
  Fbg: 213.8 mg/dL
  Hb: 13.2 g/dL
  Ht: 37.5%
  Lym: 79.8%
  MCH: 22.4 pg
  MCHC: 35.3%
  MCV: 63.3 fL
  Mono: 2.6%
  Neu: 15.2%
  PT: 12.5 s
  Plat: 122.9 x10_4/uL
  RBC: 592.2 x10_4/ul
  Ret: 6.6%
  WBC: 108.7 x10_2/uL
  KIDNEY_L: 1.1 g
  KIDNEY_R: 1 g
  KIDNEY_TOTAL: 2.1 g
  LIVER: 11.5 g
  A/G: 1.7
  ALP: 964.4 IU/L
  ALT: 33.2 IU/L
  AST: 68 IU/L
  BUN: 13.8 mg/dL
  CRE: 0.4 mg/dL
  Ca: 10.6 mg/dL
  Cl: 102.4 meq/L
  DBIL: 0.096 mg/dL
  GLC: 212.6 mg/dL
  IP: 7.2 mg/dL
  K: 3.9 meq/L
  LDH: 200.2 IU/L
  Na: 140 meq/L
  PL: 134.4 mg/dL
  RALB: 3.4 g/dL
  TBIL: 0.1 mg/dL
  TC: 65.6 mg/dL
  TG: 99.8 mg/dL
  TP: 5.5 g/dL
  gamma-GTP: 1 IU/L
[6]
  TERMINAL_BW: 276.7 g
  APTT: 20.1 s
  Bas: 0%
  Eos: 1%
  Fbg: 228.8 mg/dL
  Hb: 13.9 g/dL
  Ht: 39.5%
  Lym: 79.2%
  MCH: 21.7 pg
  MCHC: 35.2%
  MCV: 61.9 fL
  Mono: 3%
  Neu: 16.4%
  PT: 12.6 s
  Plat: 124.7 x10_4/uL
  RBC: 639.4 x10_4/ul
  Ret: 6%
  WBC: 123.1 x10_2/uL
  KIDNEY_L: 1.1 g
  KIDNEY_R: 1.1 g
  KIDNEY_TOTAL: 2.3 g
  LIVER: 13.3 g
  A/G: 1.6
  ALP: 916.8 IU/L
  ALT: 33.4 IU/L
  AST: 62.4 IU/L
  BUN: 15.8 mg/dL
  CRE: 0.4 mg/dL
  Ca: 11 mg/dL
  Cl: 100.6 meq/L
  DBIL: 0.1 mg/dL
  GLC: 205 mg/dL
  IP: 7.6 mg/dL
  K: 4.3 meq/L
  LDH: 201.2 IU/L
  Na: 140 meq/L
  PL: 156.8 mg/dL
  RALB: 3.5 g/dL
  TBIL: 0.2 mg/dL
  TC: 74.4 mg/dL
  TG: 142.4 mg/dL
  TP: 5.7 g/dL
  gamma-GTP: 1 IU/L
[7]
  TERMINAL_BW: 338.3 g
  APTT: 19.8 s
  Bas: 0%
  Eos: 1%
  Fbg: 223 mg/dL
  Hb: 14.3 g/dL
  Ht: 41.2%
  Lym: 80.6%
  MCH: 21 pg
  MCHC: 34.8%
  MCV: 60.3 fL
  Mono: 2.2%
  Neu: 15%
  PT: 12.2 s
  Plat: 114.6 x10_4/uL
  RBC: 683 x10_4/ul
  Ret: 4.3%
  WBC: 119.2 x10_2/uL
  KIDNEY_L: 1.3 g
  KIDNEY_R: 1.3 g
  KIDNEY_TOTAL: 2.5 g
  LIVER: 15.1 g
  A/G: 1.5
  ALP: 781 IU/L
  ALT: 32.6 IU/L
  AST: 60.4 IU/L
  BUN: 17.6 mg/dL
  CRE: 0.5 mg/dL
  Ca: 10.7 mg/dL
  Cl: 102.6 meq/L
  DBIL: 0.1 mg/dL
  GLC: 208 mg/dL
  IP: 6.5 mg/dL
  K: 3.7 meq/L
  LDH: 209.8 IU/L
  Na: 140.4 meq/L
  PL: 160.6 mg/dL
  RALB: 3.6 g/dL
  TBIL: 0.2 mg/dL
  TC: 75 mg/dL
  TG: 149.6 mg/dL
  TP: 6.1 g/dL
  gamma-GTP: 1 IU/L
[8]
  TERMINAL_BW: 422 g
  APTT: 19.9 s
  Bas: 0%
  Eos: 1%
  Fbg: 220.4 mg/dL
  Hb: 15 g/dL
  Ht: 43.1%
  Lym: 83.8%
  MCH: 19.8 pg
  MCHC: 34.8%
  MCV: 56.8 fL
  Mono: 2.2%
  Neu: 12.2%
  PT: 12.7 s
  Plat: 99.8 x10_4/uL
  RBC: 759 x10_4/ul
  Ret: 2.6%
  WBC: 140.7 x10_2/uL
  KIDNEY_L: 1.5 g
  KIDNEY_R: 1.5 g
  KIDNEY_TOTAL: 2.9 g
  LIVER: 17.2 g
  A/G: 1.3
  ALP: 736.4 IU/L
  ALT: 32.6 IU/L
  AST: 59.2 IU/L
  BUN: 16.6 mg/dL
  CRE: 0.5 mg/dL
  Ca: 10.4 mg/dL
  Cl: 102.4 meq/L
  DBIL: 0.098 mg/dL
  GLC: 224 mg/dL
  IP: 6.3 mg/dL
  K: 3.5 meq/L
  LDH: 137 IU/L
  Na: 139.6 meq/L
  PL: 140.8 mg/dL
  RALB: 3.4 g/dL
  TBIL: 0.2 mg/dL
  TC: 66.2 mg/dL
  TG: 104.6 mg/dL
  TP: 5.9 g/dL
  gamma-GTP: 1 IU/L
